Laboratory results taken from BindingDB's records for patent US12180207 (Array Biopharma, 2024).
pIC50: −log10 of the molar value.

Legend:
[1] = biological target: T1, Fibroblast growth factor receptor 2 (Homo sapiens, UniProt P21802); test: FGFR2 Enzyme Activity Assay
Procedure: (§1) FGFR2 kinase activity was measured by the Invitrogen LanthaScreen™ Assay technology which directly measures the amount of substrate phosphorylation by TR-FRET using a fluorescently-labeled peptide and Europium-labeled antibody. […] After a 20 minute incubation at 22° C., an equal volume of 2 nM LanthaScreen Eu-PY20 Antibody (Life Technologies Cat. No. PV5691) and 10 mM EDTA were added to quench the kinase reaction and start the detection reaction. After an additional 60 minute incubation at 22° C., the reaction was measured using a PerkinElmer EnVision multimode plate reader via TR-FRET dual wavelength detection, and the percent of control (POC) calculated using a ratiometric emission factor. 100 POC was determined using no test compounds and 0 POC was determined using no enzyme. The POC values were fit to a 4-parameter logistic curve as a function of the concentration of the compound, and the IC50 value is the point where the curve crosses 50 POC.

[2] = biological target: T2, Fibroblast growth factor receptor 3 (Homo sapiens, UniProt P22607); test: FGFR3 Enzyme Activity Assay
Procedure: as §1, with “FGFR3 kinase” for “FGFR2 kinase”, “a 10” for “a 20”

[3] = biological target: T3, Fibroblast growth factor receptor 1 (Homo sapiens, UniProt P11362); test: Enzyme Assay
Procedure: (§2) he potency of compounds inhibiting human isoforms of FGFR kinase was determined using Life Technologies' Homogeneous Time Resolved Fluorescence (HTRF)-based binding assay technology. […] After a 60 minute incubation at 22° C., the extent of tracer displacement was determined using a PerkinElmer EnVision multimode plate reader via HTRF dual wavelength detection, and the percent of control (POC) was calculated using a ratiometric emission factor. One hundred POC was determined using no test compound, and 0 POC was determined in the presence of 1 μM of an appropriate control inhibitor.

[4] = biological target: T2, Fibroblast growth factor receptor 3; test: Enzyme Assay
Procedure: as §2

[5] = biological target: T1, Fibroblast growth factor receptor 2; test: Enzyme Assay
Procedure: as §2

[6] = biological target: T3, Fibroblast growth factor receptor 1; test: FGFR1 Enzyme Activity Assay
Procedure: as §1, with “FGFR1 kinase” for “FGFR2 kinase”, “by Time-resolved fluorescence energy transfer (TR-FRET)” for “by TR-FRET”, “20 minutes” for “20 minute”, “EDTA was” for “EDTA were”

T2 sequence (P22607 whole entry): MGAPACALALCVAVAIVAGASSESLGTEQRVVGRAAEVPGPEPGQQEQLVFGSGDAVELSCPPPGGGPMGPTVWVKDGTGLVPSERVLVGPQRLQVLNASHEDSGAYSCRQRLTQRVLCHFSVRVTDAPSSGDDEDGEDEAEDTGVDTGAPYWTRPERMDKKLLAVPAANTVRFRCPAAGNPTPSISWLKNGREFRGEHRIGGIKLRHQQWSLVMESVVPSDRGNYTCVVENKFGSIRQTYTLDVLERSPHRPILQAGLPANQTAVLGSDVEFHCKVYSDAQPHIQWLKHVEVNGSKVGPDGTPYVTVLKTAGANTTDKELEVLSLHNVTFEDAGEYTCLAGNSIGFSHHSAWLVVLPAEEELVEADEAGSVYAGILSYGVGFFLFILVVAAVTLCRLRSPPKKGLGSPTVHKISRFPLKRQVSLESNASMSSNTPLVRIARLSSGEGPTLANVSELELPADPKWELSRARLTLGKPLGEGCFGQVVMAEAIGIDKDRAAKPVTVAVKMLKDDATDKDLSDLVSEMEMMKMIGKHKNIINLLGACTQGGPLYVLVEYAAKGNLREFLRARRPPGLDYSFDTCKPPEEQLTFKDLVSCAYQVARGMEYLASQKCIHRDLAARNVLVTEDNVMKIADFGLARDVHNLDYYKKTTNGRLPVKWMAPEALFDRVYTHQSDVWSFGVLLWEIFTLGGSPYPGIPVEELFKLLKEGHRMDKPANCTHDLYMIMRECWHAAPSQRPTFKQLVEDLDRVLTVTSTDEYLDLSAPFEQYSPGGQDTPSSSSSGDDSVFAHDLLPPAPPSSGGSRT
T3 sequence (P11362 whole entry, canonical isoform): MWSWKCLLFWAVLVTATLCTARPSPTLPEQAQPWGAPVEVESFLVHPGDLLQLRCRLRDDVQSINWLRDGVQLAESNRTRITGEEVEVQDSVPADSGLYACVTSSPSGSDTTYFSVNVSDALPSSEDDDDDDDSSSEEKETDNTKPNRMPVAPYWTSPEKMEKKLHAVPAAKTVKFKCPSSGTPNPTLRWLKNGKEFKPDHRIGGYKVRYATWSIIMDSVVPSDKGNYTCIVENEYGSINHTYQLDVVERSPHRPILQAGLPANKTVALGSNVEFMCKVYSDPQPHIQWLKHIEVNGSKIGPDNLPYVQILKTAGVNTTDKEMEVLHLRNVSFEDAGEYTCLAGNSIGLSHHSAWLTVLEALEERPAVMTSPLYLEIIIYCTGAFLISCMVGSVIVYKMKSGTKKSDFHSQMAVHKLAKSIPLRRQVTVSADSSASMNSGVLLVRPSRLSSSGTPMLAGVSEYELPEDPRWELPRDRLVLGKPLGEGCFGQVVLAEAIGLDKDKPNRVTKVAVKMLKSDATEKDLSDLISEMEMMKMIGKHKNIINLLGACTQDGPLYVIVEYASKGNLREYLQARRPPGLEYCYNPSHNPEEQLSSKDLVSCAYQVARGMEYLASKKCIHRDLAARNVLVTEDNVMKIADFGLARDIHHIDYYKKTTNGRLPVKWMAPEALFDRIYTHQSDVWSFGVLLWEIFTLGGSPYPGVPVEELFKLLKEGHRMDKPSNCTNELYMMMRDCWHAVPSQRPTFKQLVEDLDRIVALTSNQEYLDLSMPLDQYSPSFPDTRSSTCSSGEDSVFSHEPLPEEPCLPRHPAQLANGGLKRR
T1 sequence (P21802 whole entry): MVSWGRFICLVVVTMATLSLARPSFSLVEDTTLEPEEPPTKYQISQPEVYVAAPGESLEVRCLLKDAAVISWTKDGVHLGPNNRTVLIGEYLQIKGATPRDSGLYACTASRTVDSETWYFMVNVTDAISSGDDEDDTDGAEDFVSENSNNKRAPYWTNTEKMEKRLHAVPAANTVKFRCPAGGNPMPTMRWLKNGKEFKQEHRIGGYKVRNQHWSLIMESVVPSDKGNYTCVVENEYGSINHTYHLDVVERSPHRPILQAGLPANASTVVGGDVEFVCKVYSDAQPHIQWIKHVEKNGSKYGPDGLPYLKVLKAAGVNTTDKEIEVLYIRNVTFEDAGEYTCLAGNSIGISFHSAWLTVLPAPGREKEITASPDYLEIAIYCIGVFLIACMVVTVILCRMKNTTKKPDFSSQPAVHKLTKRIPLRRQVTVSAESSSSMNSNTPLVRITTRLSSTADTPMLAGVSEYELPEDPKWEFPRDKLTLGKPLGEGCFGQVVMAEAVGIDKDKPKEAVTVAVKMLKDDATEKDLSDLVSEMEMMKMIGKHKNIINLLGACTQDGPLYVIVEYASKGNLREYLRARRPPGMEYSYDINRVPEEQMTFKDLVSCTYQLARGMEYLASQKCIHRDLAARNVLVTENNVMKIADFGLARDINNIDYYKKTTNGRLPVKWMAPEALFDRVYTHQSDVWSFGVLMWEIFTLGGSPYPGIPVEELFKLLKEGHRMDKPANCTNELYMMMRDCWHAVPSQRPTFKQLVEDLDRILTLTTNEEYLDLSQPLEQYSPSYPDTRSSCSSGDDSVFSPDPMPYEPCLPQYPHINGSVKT

pIC50 [1] | pIC50 [2] | pIC50 [3] | pIC50 [4] | pIC50 [5] | pIC50 [6] | SMILES
8.52 |  | 7.44 | 8.30 | 7.80 | 7.70 | COc1cc(-c2cnn(C3CCN(C(=O)C4CN(C(=O)/C=C/CF)C4)CC3)c2)cn2ncc(C#N)c12 [US12180207, Example 142]
8.22 | 8.40 | 6.66 | 7.85 |  | 7.33 | COc1cc(-c2cnn(C3CN(CC4CN(C(=O)/C=C/CN(C)C)C4)C3)c2)cn2ncc(C#N)c12 [US12180207, Example 148]
7.92 | 7.96 | 6.41 | 6.93 |  | 7.46 | C=CC(=O)N[C@H]1CC[C@H](C(=O)N2CC(n3cc(-c4cc(OC)c5c(C#N)cnn5c4)cn3)C2)C1 [US12180207, Example 77]
8.30 | 8.40 | 6.56 | 7.62 |  | 7.96 | COc1cc(-c2cnn(C3CCN(C(=O)/C=C/CN(C)C)CC3)c2)cn2ncc(C#N)c12 [US12180207, Example 144]
8.40 | 8.52 | 6.95 | 7.51 |  | 7.89 | C=CC(=O)N[C@@H]1CC[C@H](C(=O)N2CCC(n3cc(-c4cc(OC)c5c(C#N)cnn5c4)cn3)CC2)C1 [US12180207, Example 32]
8.30 | 8.70 | 6.64 | 7.44 |  | 7.72 | C=CC(=O)N[C@@H]1CC[C@@H](C(=O)N2CCC(n3cc(-c4cc(OC)c5c(C#N)cnn5c4)cn3)CC2)C1 [US12180207, Example 34]
8.30 |  | 7.51 | 8.40 |  | 7.77 | C=CS(=O)(=O)N[C@H]1CC[C@H](C(=O)N2CCC(n3cc(-c4cc(OC)c5c(C#N)cnn5c4)cn3)CC2)CC1 [US12180207, Example 187]

Continued, compound first:

SMILES | pIC50 [1] | pIC50 [2] | pIC50 [3] | pIC50 [4] | pIC50 [5] | pIC50 [6]
C=CC(=O)N[C@H]1CC[C@@H](C(=O)N2CCC(n3cc(-c4cc(OC)c5c(C#N)cnn5c4)cn3)CC2)C1 [US12180207, Example 33] | 8.40 | 9.00 | 7.70 | 8.52 |  | 
C=CS(=O)(=O)Nc1ccc(C(=O)N2CCC(n3cc(-c4cc(OC)c5c(C#N)cnn5c4)cn3)CC2)cc1 [US12180207, Example 196] | 8.10 | 8.70 | 7.51 | 8.52 |  | 8.00
C=CS(=O)(=O)N[C@H]1C[C@@H](C(=O)N2CCC(n3cc(-c4cc(OC)c5c(C#N)cnn5c4)cn3)CC2)C1 [US12180207, Example 193] |  |  | 7.44 |  |  | 8.15
C=C(F)C(=O)N1CC(C(=O)N2CCC(n3cc(-c4cc(OC)c5c(C#N)cnn5c4)cn3)CC2)C1 [US12180207, Example 140] | 8.70 | 8.40 | 7.43 | 8.15 | 7.72 | 7.68
C=CC(=O)Nc1ccc(S(=O)(=O)N2CCC(n3cc(-c4cc(OC)c5c(C#N)cnn5c4)cn3)CC2)cc1 [US12180207, Example 49] |  | 8.30 | 6.95 | 7.89 |  | 7.37
COc1cc(-c2cnn(C3CN(C(=O)C4CN(C(=O)/C=C/CN(C)C)C4)C3)c2)cn2ncc(C#N)c12 [US12180207, Example 150] | 8.22 | 8.15 | 6.64 | 7.66 |  | 8.10
C=CC(=O)N[C@H]1CC[C@H](C(=O)N2CCC(n3cc(-c4cc(OC)c5c(C#N)cnn5c4)cn3)CC2)C1 [US12180207, Example 35] | 8.30 | 8.52 | 6.92 | 7.64 |  | 7.72
C=CC(=O)N[C@H]1CCC[C@@H](C(=O)N2CCC(n3cc(-c4cc(OC)c5c(C#N)cnn5c4)cn3)CC2)C1 [US12180207, Example 19] | 8.10 | 8.15 | 7.25 | 7.96 |  | 7.70
C=CS(=O)(=O)N[C@H]1C[C@H](C(=O)N2CCC(n3cc(-c4cc(OC)c5c(C#N)cnn5c4)cn3)CC2)C1 [US12180207, Example 194] |  |  | 7.03 |  |  | 7.89
